Measurements from patent US9713651B2, “Compositions, methods, and systems for the synthesis and use of imaging agents” (Lantheus Medical Imaging, Inc., priority 2012, dated 2017).

Assay: Tissue distribution of 18F imaging agents in rats
Type: in vivo, Male Sprague Dawley rats
Details: rat, iv tail vein ~15 μCi, ± SEM; for Blood, imaging agent distribution at 15 min / Brain, imaging agent distribution at 15 min / Femur, imaging agent distribution at 15 min / Heart, imaging agent distribution at 15 min / Kidney, imaging agent distribution at 15 min / Liver, imaging agent distribution at 15 min / Lung, imaging agent distribution at 15 min / Muscle, imaging agent distribution at 15 min / Pancreas, imaging agent distribution at 15 min / Spleen, imaging agent distribution at 15 min: 15 min post injection; for Blood, imaging agent distribution at 60 min / Brain, imaging agent distribution at 60 min / Femur, imaging agent distribution at 60 min / Heart, imaging agent distribution at 60 min / Kidney, imaging agent distribution at 60 min / Liver, imaging agent distribution at 60 min / Lung, imaging agent distribution at 60 min / Muscle, imaging agent distribution at 60 min / Pancreas, imaging agent distribution at 60 min / Spleen, imaging agent distribution at 60 min: 60 min post injection
Method: Anesthetized (sodium pentobarbital at 50 mg/kg, ip or isoflurane gas inhalation) Male Sprague Dawley rats (250-350 g) received an iv injection of the imaging agent (˜15 μCi) via the tail vein. At 15 or 60 min post injection, the animals were euthanized and the required tissue samples harvested. All samples were then weighed and counted for radioactivity (Wallac Wizard 1480 or Packard Cobra II Autogamma); regional tissue uptake of the imaging agent was thus expressed as a percentage of the total injected dose per gram of tissue (% ID/g).
The generic structure depicted below highlights specific structural features evaluated during distribution experiments.

Row | SMILES | Blood, imaging agent distribution at 15 min | Brain, imaging agent distribution at 15 min | Femur, imaging agent distribution at 15 min | Heart, imaging agent distribution at 15 min | Kidney, imaging agent distribution at 15 min | Liver, imaging agent distribution at 15 min | Lung, imaging agent distribution at 15 min | Muscle, imaging agent distribution at 15 min | Pancreas, imaging agent distribution at 15 min | Spleen, imaging agent distribution at 15 min | Blood, imaging agent distribution at 60 min | Brain, imaging agent distribution at 60 min | Femur, imaging agent distribution at 60 min | Heart, imaging agent distribution at 60 min | Kidney, imaging agent distribution at 60 min | Liver, imaging agent distribution at 60 min | Lung, imaging agent distribution at 60 min | Muscle, imaging agent distribution at 60 min | Pancreas, imaging agent distribution at 60 min | Spleen, imaging agent distribution at 60 min
1 | CC(OCCF)c1ccc(COc2cnn(C(C)(C)C)c(=O)c2Cl)cc1 (stereo not drawn) [Example 67G] | 0.50 ± 0.18 % ID/g | 0.59 ± 0.03 % ID/g | 0.40 ± 0.05 % ID/g | 2.19 ± 0.36 % ID/g | 0.88 ± 0.05 % ID/g | 0.33 ± 0.10 % ID/g | 0.46 ± 0.12 % ID/g | 0.35 ± 0.04 % ID/g | 0.41 ± 0.03 % ID/g | 0.32 ± 0.11 % ID/g | 0.47 ± 0.04 % ID/g | 0.39 ± 0.05 % ID/g | 0.58 ± 0.06 % ID/g | 0.98 ± 0.16 % ID/g | 0.44 ± 0.02 % ID/g | 0.32 ± 0.03 % ID/g | 0.38 ± 0.03 % ID/g | 0.33 ± 0.01 % ID/g | 0.26 ± 0.01 % ID/g | 0.28 ± 0.03 % ID/g
2 | CC(C)n1ncc(OCc2ccc(COCCF)cc2)c(Cl)c1=O [Example 67H] | 0.45 ± 0.02 % ID/g | 0.43 ± 0.05 % ID/g | 0.36 ± 0.04 % ID/g | 1.14 ± 0.09 % ID/g | 0.78 ± 0.01 % ID/g | 0.46 ± 0.01 % ID/g | 0.41 ± 0.01 % ID/g | 0.38 ± 0.02 % ID/g | 0.44 ± 0.03 % ID/g | 0.34 ± 0.03 % ID/g | 0.55 ± 0.02 % ID/g | 0.43 ± 0.02 % ID/g | 0.71 ± 0.06 % ID/g | 0.55 ± 0.03 % ID/g | 0.49 ± 0.03 % ID/g | 0.40 ± 0.02 % ID/g | 0.42 ± 0.01 % ID/g | 0.31 ± 0.02 % ID/g | 0.32 ± 0.02 % ID/g | 0.35 ± 0.02 % ID/g
3 | Cc1c(OCc2ccc(COCCF)cc2)cnn(C(C)(C)C)c1=O [Example 67I] | 0.11 ± 0.02 % ID/g | 0.49 ± 0.10 % ID/g | 0.28 ± 0.04 % ID/g | 2.34 ± 0.57 % ID/g | 1.13 ± 0.11 % ID/g | 0.33 ± 0.02 % ID/g | 0.19 ± 0.03 % ID/g | 0.28 ± 0.13 % ID/g | 0.43 ± 0.10 % ID/g | 0.18 ± 0.01 % ID/g | 0.16 ± 0.01 % ID/g | 0.36 ± 0.01 % ID/g | 0.31 ± 0.02 % ID/g | 1.78 ± 0.15 % ID/g | 0.48 ± 0.04 % ID/g | 0.30 ± 0.01 % ID/g | 0.19 ± 0.01 % ID/g | 0.35 ± 0.09 % ID/g | 0.23 ± 0.02 % ID/g | 0.13 ± 0.00 % ID/g

Continued, values first:

Row | Blood, imaging agent distribution at 15 min | Brain, imaging agent distribution at 15 min | Femur, imaging agent distribution at 15 min | Heart, imaging agent distribution at 15 min | Kidney, imaging agent distribution at 15 min | Liver, imaging agent distribution at 15 min | Lung, imaging agent distribution at 15 min | Muscle, imaging agent distribution at 15 min | Pancreas, imaging agent distribution at 15 min | Spleen, imaging agent distribution at 15 min | Blood, imaging agent distribution at 60 min | Brain, imaging agent distribution at 60 min | Femur, imaging agent distribution at 60 min | Heart, imaging agent distribution at 60 min | Kidney, imaging agent distribution at 60 min | Liver, imaging agent distribution at 60 min | Lung, imaging agent distribution at 60 min | Muscle, imaging agent distribution at 60 min | Pancreas, imaging agent distribution at 60 min | Spleen, imaging agent distribution at 60 min | SMILES
4 | 0.50 ± 0.02 % ID/g | 0.36 ± 0.01 % ID/g | 0.28 ± 0.02 % ID/g | 1.19 ± 0.25 % ID/g | 0.39 ± 0.01 % ID/g | 0.32 ± 0.01 % ID/g | 0.39 ± 0.02 % ID/g | 0.38 ± 0.04 % ID/g | 0.23 ± 0.02 % ID/g | 0.34 ± 0.01 % ID/g | 0.58 ± 0.04 % ID/g | 0.43 ± 0.02 % ID/g | 0.40 ± 0.03 % ID/g | 0.50 ± 0.03 % ID/g | 0.42 ± 0.02 % ID/g | 0.35 ± 0.02 % ID/g | 0.42 ± 0.02 % ID/g | 0.31 ± 0.02 % ID/g | 0.23 ± 0.03 % ID/g | 0.37 ± 0.02 % ID/g | CC(C)(C)n1ncc(OCc2ccc(C(=O)OCCF)cc2)c(Cl)c1=O [Example 67J]
5 | 0.07 ± 0.03 % ID/g | 0.36 ± 0.04 % ID/g | 0.27 ± 0.02 % ID/g | 2.68 ± 0.35 % ID/g | 1.35 ± 0.14 % ID/g | 0.99 ± 0.06 % ID/g | 0.37 ± 0.15 % ID/g | 0.28 ± 0.02 % ID/g | 0.55 ± 0.10 % ID/g | 0.31 ± 0.09 % ID/g | 0.03 ± 0.00 % ID/g | 0.36 ± 0.03 % ID/g | 0.37 ± 0.05 % ID/g | 2.46 ± 0.27 % ID/g | 0.83 ± 0.08 % ID/g | 0.83 ± 0.17 % ID/g | 0.15 ± 0.03 % ID/g | 0.39 ± 0.04 % ID/g | 0.38 ± 0.02 % ID/g | 0.11 ± 0.02 % ID/g | CC(C)(C)n1ncc(OCc2ccc(C#CCCF)cc2)c(Cl)c1=O [Example 67K]
6 | 0.14 ± 0.01 % ID/g | 0.30 ± 0.05 % ID/g | 0.31 ± 0.01 % ID/g | 1.19 ± 0.18 % ID/g | 0.65 ± 0.07 % ID/g | 1.71 ± 0.36 % ID/g | 0.29 ± 0.03 % ID/g | 0.27 ± 0.02 % ID/g | 0.36 ± 0.06 % ID/g | 0.18 ± 0.01 % ID/g | 0.10 ± 0.02 % ID/g | 0.22 ± 0.03 % ID/g | 0.78 ± 0.15 % ID/g | 0.62 ± 0.12 % ID/g | 0.40 ± 0.08 % ID/g | 2.06 ± 0.27 % ID/g | 0.21 ± 0.02 % ID/g | 0.20 ± 0.06 % ID/g | 0.33 ± 0.08 % ID/g | 0.11 ± 0.02 % ID/g | CC(C)(C)n1ncc(OCc2ccc(-c3cnc(F)nc3)cc2)c(Cl)c1=O [Example 67L]
